Publication PMC5485171 (Diabetes, Obesity & Metabolism, 2017)

Tested on: patients with type 2 diabetes
Test: Adverse events
Format: in vivo, human
[1] = 28 weeks, as‐treated, number (%) of patients, n = 181 / 122
[2] = 28 weeks, most common AEs (≥5% of patients)

SMILES: N[C@@H](CC(=O)N1CCn2c(nnc2C(F)(F)F)C1)Cc1cc(F)c(F)cc1F [Sitagliptin, sitagliptin]
- symptoms of hypoglycaemia, number of recipients (28 weeks): 7 recipients
- AEs leading to withdrawal [1]: 0 (0.0) n (%)
- Cardiovascular events (adjudicated) [1]: 0 (0.0) n (%)
- Gastrointestinal AEs [1]: 9 (7.4) n (%)
- Gastrointestinal AEs: Diarrhea [1]: 2 (1.6) n (%)
- Gastrointestinal AEs: Dyspepsia [1]: 1 (0.8) n (%)
- Gastrointestinal AEs: Nausea [1]: 2 (1.6) n (%)
- Gastrointestinal AEs: Vomiting [1]: 0 (0.0) n (%)
- Hypoglycaemia: Major [1]: 0 (0.0) n (%)
- Injection‐site‐related AEs [1]: 0 (0.0) n (%)
- Injection‐site‐related AEs: Bruising [1]: 0 (0.0) n (%)
- Injection‐site‐related AEs: Induration [1]: 0 (0.0) n (%)
- Injection‐site‐related AEs: Nodules [1]: 0 (0.0) n (%)
- Injection‐site‐related AEs: Pruritus [1]: 0 (0.0) n (%)
- Pancreatic cancer (adjudicated) [1]: 0 (0.0) n (%)
- Pancreatitis (adjudicated) [1]: 0 (0.0) n (%)
- Renal failure [1]: 0 (0.0) n (%)
- Serious AEs [1]: 0 (0.0) n (%)
- Symptoms of hypoglycaemia [1]: 7 (5.7) n (%)
- Thyroid neoplasms (adjudicated) [1]: 0 (0.0) n (%)
- nasopharyngitis, proportion of patients [2]: 0.0%
- nausea, proportion of patients [2]: 1.6%
- Hypoglycaemia: Minor (28 weeks, symptoms and glucose <54 mg/dL, number (%) of patients, n = 181 / 122): 1 (0.8) n (%)
- AEs reported, proportion of recipients (28‐week treatment period): 32.8%
- Any AE (28‐week treatment period, as‐treated, exenatide 2.0 mg QW sc (n = 181), sitagliptin 100 mg once daily oral (n = 122), number (%) of patients): 40 (32.8) n (%)
